System: lymph node mononuclear cells (T cell proliferation in response to HEL)
Experiment: T cell recall responses to HEL, 3H-thymidine uptake (proliferation)
Assay type: cell-based, Mice
Details: alprazolam (Xanax) alone, any of the dosages tested
Protocol: Mice were injected with hen egg lysozyme (HEL, a prototypic foreign antigen) in 50% complete Freund's adjuvant (CFA) in their hind food-pad. […] During the last 16 h of a 96 h incubation period, […] ^3H thymidine was added into each well.

Cc1nnc2n1-c1ccc(Cl)cc1C(c1ccccc1)=NC2 [alprazolam]
effect on T cell proliferation: did not have a significant effect

Reference: US11992495B2 (THE REGENTS OF THE UNIVERSITY OF CALIFORNIA, priority 2017, dated 2024)
